22 compounds from patent US4985453A, “Parabanic acid derivatives and pharmaceutical compositions thereof” (Nippon Zoki Pharmaceutical Co., Ltd., priority 1988, dated 1991) can be followed below.

Tested on in one data set: not listed separately
Nature of the data set: Acute toxicity test (oral, LD50). Particulars: rat, in vivo, Wistar-strain male rats, groups of 8, death rate of 7 days. As for the experimental part: The test compounds of the present invention were orally administered to groups of 8 Wistar-strain male rats, and the LD50 values were calculated based on the death rate of 7 days.
Regarding `O=C(O)CN1C(=O)C(=O)N(Cc2ccc(Br)cc2)C1=O` [Compound 44, 1-(4-Bromobenzyl)-3-carboxymethylparabanic acid], the LD50 (in general, the dose expected to kill half of the subjects tested) at 168 h was > 5000 mg/kg.

On to `O=C(O)CN1C(=O)C(=O)N(Cc2ccc(Cl)c(Cl)c2)C1=O` [Compound 47, 3-Carboxymethyl-1-(3,4-dichlorobenzyl)parabanic acid], for which the LD50 at 168 h is > 2000 mg/kg.

On to `O=C(O)CN1C(=O)C(=O)N(Cc2cccc([N+](=O)[O-])c2)C1=O` [Compound 48, 3-Carboxymethyl-1-(3-nitrobenzyl)parabanic acid], for which the LD50 at 168 h was > 5000 mg/kg.

The next data set deals with T1, aldose reductase prepared from rat lenses (Rattus norvegicus, UniProt P07943).
T1 construct: aldose reductase prepared from rat lenses; from tissue; host or cells: rat lens
Description: Aldose reductase inhibitory activity. Type of data set: biochemical. Particulars: at 5×10^-7 M; glyceraldehyde substrate, NADPH, absorbance at 340 nm; read-out: Inhibitory rate (%) against aldose reductase. The method, then: Aldose reductase inhibitory activity of the compound of the present invention was evaluated by using aldose reductase prepared from rat lenses. The test compound was added to the reaction mixture consisting of phosphate buffer, NADPH and aldose reductase. After stability of absorbance was confirmed for a few minutes, glyceraldehyde was added to the reaction mixture and then the decrease in absorbance at 340 nm with the passage of time was measured to assay the inhibitory activity of the test compound against aldose reductase.
The inhibitory rate (%) against aldose reductase in the table is the values at 5×10^-7 M of the each test compound.
Consider `O=C(O)CN1C(=O)C(=O)N(CCc2ccccc2Cl)C1=O` [Compound 52, 3-Carboxymethyl-1-(2-(2-chlorophenyl)ethyl)parabanic acid], for which the inhibition at 0.5 µM is 37%.

On to `O=C(O)CN1C(=O)C(=O)N(Cc2ccc(Br)cc2)C1=O` [Compound 44, 1-(4-Bromobenzyl)-3-carboxymethylparabanic acid], for which the inhibition at 0.5 µM is 65%.

As for `O=C(O)CN1C(=O)C(=O)N(Cc2ccc(Cl)cc2)C1=O` [Compound 43, 3-Carboxymethyl-1-(4-chlorobenzyl)parabanic acid], the inhibition at 0.5 µM came to 56%.

As to `O=C(O)CN1C(=O)C(=O)N(Cc2ccc(Cl)c(Cl)c2)C1=O` [Compound 47, 3-Carboxymethyl-1-(3,4-dichlorobenzyl)parabanic acid], the inhibition at 0.5 µM turned out to be 75%.

`O=C(O)CN1C(=O)C(=O)N(Cc2ccccc2Cl)C1=O` [Compound 41, 3-Carboxymethyl-1-(2-chlorobenzyl)parabanic acid]: the inhibition at 0.5 µM came to 32%.

Turning to `O=C(O)CN1C(=O)C(=O)N(CCCCc2ccccc2)C1=O` [Compound 57, 3-Carboxymethyl-1-(4-phenylbutyl)parabanic acid], the inhibition at 0.5 µM was found to be 25%.

For the compound `COc1ccc(CCN2C(=O)C(=O)N(CC(=O)O)C2=O)cc1OC` [Compound 51, 3-Carboxymethyl-1-(2-(3,4-dimethoxyphenyl)ethyl)parabanic acid], the inhibition at 0.5 µM turned out to be 42%.

As for `Cc1ccc(CCN2C(=O)C(=O)N(CC(=O)O)C2=O)cc1` [Compound 50, 3-Carboxymethyl-1-(2-(4-methylphenyl)ethyl)parabanic acid], the inhibition at 0.5 µM worked out at 42%.

Regarding `O=C(O)CN1C(=O)C(=O)N(CCc2ccc(Cl)c(Cl)c2)C1=O` [Compound 54, 3-Carboxymethyl-1-(2-(3,4-dichlorophenyl)ethyl)parabanic acid], the inhibition at 0.5 µM was 57%.

`COc1cccc(CN2C(=O)C(=O)N(CC(=O)O)C2=O)c1` [Compound 39, 3-Carboxymethyl-1-(3-methoxybenzyl)parabanic acid]: the inhibition at 0.5 µM was 44%.

With `CC1CCC(N2C(=O)C(=O)N(CC(=O)O)C2=O)CC1` (stereo not shown) [Compound 34, 3-Carboxymethyl-1-(4-methylcyclohexyl)parabanic acid], the inhibition at 0.5 µM amounted to 49%.

Take `O=C(O)CN1C(=O)C(=O)N(CCc2ccc(Br)cc2)C1=O` [Compound 53, 1-(2-(4-Bromophenyl)ethyl)-3-carboxymethylparabanic acid]: the inhibition at 0.5 µM stood at 47%.

With `O=C(O)CN1C(=O)C(=O)N(CCc2cccc([N+](=O)[O-])c2)C1=O` [Compound 55, 3-Carboxymethyl-1-(2-(3-nitrophenyl)ethyl)parabanic acid], the inhibition at 0.5 µM is 36%.

Turning to `Cc1ccccc1CN1C(=O)C(=O)N(CC(=O)O)C1=O` [Compound 36, 3-Carboxymethyl-1-(2-methylbenzyl)parabanic acid], the inhibition at 0.5 µM turned out to be 41%.

On to `O=C(O)CN1C(=O)C(=O)N(Cc2cccc(Cl)c2)C1=O` [Compound 42, 3-Carboxymethyl-1-(3-chlorobenzyl)parabanic acid], for which the inhibition at 0.5 µM was found to be 31%.

As for `O=C(O)CN1C(=O)C(=O)N(Cc2ccc(Cl)cc2Cl)C1=O` [Compound 46, 3-Carboxymethyl-1-(2,4-dichlorobenzyl)parabanic acid], the inhibition at 0.5 µM was found to be 61%.

Consider `CCOC(=O)CN1C(=O)C(=O)N(Cc2cccc([N+](=O)[O-])c2)C1=O` [Compound 19, Ethyl 1-(3-nitrobenzyl)-2,4,5-trioxoimidazolidine-3-acetate], for which the inhibition at 0.5 µM was determined as 31%.

For `O=C(O)CN1C(=O)NC(=O)C1=O` [Compound 60, 1-carboxymethylparabanic acid], the inhibition at 0.5 µM turned out to be 31%.

Take `O=C(O)CN1C(=O)C(=O)N(CCc2ccccc2)C1=O` [Compound 49, 3-Carboxymethyl-1-(2-phenylethyl)parabanic acid]: the inhibition at 0.5 µM came to 30%.

Take `CCCCCCN1C(=O)C(=O)N(CC(=O)O)C1=O` [Compound 33, 3-Carboxymethyl-1-hexylparabanic acid]: the inhibition at 0.5 µM stood at 35%.

Take `O=C(O)CN1C(=O)C(=O)N(Cc2cccc([N+](=O)[O-])c2)C1=O` [Compound 48, 3-Carboxymethyl-1-(3-nitrobenzyl)parabanic acid]: the inhibition at 0.5 µM amounted to 75%.

Consider `Cc1ccc(CN2C(=O)C(=O)N(CC(=O)O)C2=O)cc1` [Compound 37, 3-Carboxymethyl-1-(4-methylbenzyl)parabanic acid], for which the inhibition at 0.5 µM came to 30%.
